From patent US4710564A, “Anthracycline compounds” (Microbial Chemistry Research Foundation, priority 1985, dated 1987)
Values after ≈ are worked out from the molar mass of the structure shown. Read-outs that look alike come from different tables or passages of the source.

Legend:
[1] = system: Lewis lung carcinoma; test: Tumor growth inhibition against solid tumors (Lewis lung carcinoma); conditions: for Tumor growth inhibition: i.v., days 1, 5 and 9, day 13
[2] = system: P388 leukemia; test: Antitumor activity against P388 leukemia in mice, i.p. administration (T/C, therapeutic index); assay type: in vivo, CDF1 mice; conditions: for ED (T/C 130%): Mus musculus, P388, ip, read-out: Dose for T/C = 130 %
[3] = system: Adriamycin-resistant P 388 leukemia cells (P 388/ADR); test: cells; assay type: cell-based; conditions: for IC50: Mus musculus, P388, 48 h, read-out: IC50 P388/ADR; for R/S: mouse, 2880 min
[4] = comp. data from Japanese Patent Application Laid-Open Pub. No. 76896/1980; cited from earlier work
[5] = system: P 388 leukemia; test: animal or person; assay type: in vivo, CDF1 mice; conditions: for ED (T/C 130%): Mus musculus, P388, po, read-out: Dose for T/C = 130%
[6] = system: P 388 leukemia; conditions: known from the art; cited from earlier work
[7] = system: P 388 leukemia; test: animal or person; assay type: in vivo, CDF1 mice; conditions: for ED (T/C 130%): Mus musculus, P388, iv, read-out: Dose for T/C = 130%
[8] = system: heart
[9] = in vivo; conditions: mouse, iv
[10] = Solubility
[11] = mouse, in vivo, ip, 0.5 mg/kg/day
[12] = mouse, in vivo, ip, 1 mg/kg/day
[13] = mouse, in vivo, ip, 2 mg/kg/day
[14] = mouse, in vivo, ip, 4 mg/kg/day
[15] = mouse, in vivo, ip, 8 mg/kg/day
[16] = mouse, in vivo, ip, 12 mg/kg/day
[17] = mouse, in vivo, ip, 16 mg/kg/day
[18] = mouse, in vivo, po, 8 mg/kg/day
[19] = mouse, in vivo, po, 16 mg/kg/day
[20] = mouse, in vivo, po, 32 mg/kg/day
[21] = mouse, in vivo, iv, 4 mg/kg/day
[22] = mouse, in vivo, iv, 8 mg/kg/day
[23] = mouse, in vivo, iv, 16 mg/kg/day
[24] = mouse, in vivo, iv, 32 mg/kg/day
[25] = mouse, in vivo, po, 1 mg/kg/day
[26] = mouse, in vivo, po, 2 mg/kg/day
[27] = mouse, in vivo, po, 4 mg/kg/day
[28] = mouse, in vivo, iv, 1 mg/kg/day
[29] = mouse, in vivo, iv, 2 mg/kg/day

Compound	Tumor growth inhibition ([1]; 4 mg/kg/day) [%]	Tumor growth inhibition ([1]; 8 mg/kg/day) [%]	ED (T/C 130%) [2] [mg/kg/day]	T/C [2, 11]	T/C [2, 12]	T/C [2, 13]	T/C [2, 14]	T/C [2, 15]	T/C [2, 16]	IC50 [3] [µg/mL]	R/S [3]	T/C [5, 18]	T/C [5, 19]	T/C [7, 21]	T/C [7, 22]	ED (T/C 130%) [5] [mg/kg/day]	T/C [5, 27]	LD50 [9] [mg/kg]	ED (T/C 130%) [7] [mg/kg/day]	T/C [7, 29]	further results
COc1cccc2c1C(=O)c1c(O)c3c(c(O)c1C2=O)C[C@@](O)(C(=O)CO)C[C@@H]3O[C@H]1C[C@H](N)[C@H](O)[C@H](C)O1 [Adriamycin, reference compound]	64.2	72.8	< 0.25	177	191	> 217	204	> 256	194	0.35 (≈ 0.644 µM)	29.2	–	–	–	–	–	–	–	–	–	Tumor growth inhibition ([1]; 1 mg/kg/day): 34.5%; Tumor growth inhibition ([1]; 2 mg/kg/day): 14.1%
CCC1(O)Cc2cc3c(c(O)c2C(OC2CC(N)C(O)C(C)O2)C1)C(=O)c1c(O)cccc1C3=O (stereo not shown) [R20Y5, 11-deoxy-13-deoxocarminomycin]	–	–	–	–	–	–	–	–	–	–	–	–	–	–	–	–	–	–	–	–	LD50 [4]: 15 mg/kg
CC[C@@]1(O)C[C@H](O[C@H]2C[C@H](N(C)C)[C@H](O[C@H]3C[C@H](O)[C@H](O[C@H]4CCC(=O)[C@H](C)O4)[C@H](C)O3)[C@H](C)O2)c2c(cc3c(c2O)C(=O)c2c(O)cccc2C3=O)[C@H]1C(=O)OC [Aclacinomycin, reference compound]	–	–	–	–	–	111	126	155	–	–	1.92	119	131	121	119	–	–	–	–	–	Dose for T/C = 130% ([2]; mouse, in vivo, ip): 4.4 mg/kg/day; Therapeutic index ([2]; mouse, in vivo, ip): 3.6; T/C [2, 17]: 182; Dose for T/C = 130% ([5]; mouse, in vivo, po): 15 mg/kg/day; Therapeutic index ([5]; mouse, in vivo, po): 2.1; T/C [5, 20]: 154; IC50 P388/ADR [3]: 0.025 µg/mL (≈ 0.0308 µM); effectiveness by oral administration (in words) [6]: effective in the case of oral administration; Dose for T/C = 130% ([7]; mouse, in vivo, iv): 12.4 mg/kg/day; Therapeutic index ([7]; mouse, in vivo, iv): 2.6; T/C [7, 23]: 151; T/C [7, 24]: 177; T/C ([7]; mouse, in vivo, iv, 64 mg/kg/day): 35
CCC1(O)Cc2c(O)c3c(c(O)c2C(OC2CC(N4CCOCC4)C(O)C(C)O2)C1)C(=O)c1c(O)cccc1C3=O (stereo not shown) [3'-deamino-3'-(4-morpholinyl)-R20X]	–	–	0.75	104	148	177	218	> 303	231	–	–	214	219	155	151	1.45	170	12.3	2.5	119	toxicity to the heart at dosage level of maximum antitumor activity ([8]; hamster, in vivo): not found to be toxic; T/C [5, 25]: 111; T/C [5, 26]: 146; T/C [7, 28]: 104; T/C ([7]; mouse, in vivo, iv, 12 mg/kg/day): 57
CCC1(O)CC(OC2CC(N3CCOCC3)C(O)C(C)O2)c2c(O)c3c(c(O)c2C1O)C(=O)c1cccc(O)c1C3=O (stereo not shown) [3'-deamino-3'-(4-morpholinyl)-R20X2]	–	–	0.35	150	186	> 246	> 158	–	–	0.011 (≈ 0.0188 µM)	1.22	–	–	194	35	0.58	103	3.55	0.43	204	Therapeutic index ([2]; mouse, in vivo, ip): 5.7; T/C ([2]; mouse, in vivo, ip, 0.25 mg/kg/day): 112; Solubility: insoluble ([10]; insoluble in): insoluble in water, hexane, cyclohexane, diethyl ether, and petroleum ether; Solubility: soluble ([10]; soluble in): Soluble in acidic water, basic water, methanol, ethanol, propanol, acetone, ethyl acetate, and chloroform; toxicity to the heart at dosage level of maximum antitumor activity ([8]; dosage level T/C=max): not found to be toxic; Therapeutic index ([5]; mouse, in vivo, po): 3.4; T/C ([5]; mouse, in vivo, po, 0.25 mg/kg/day): 109; T/C ([5]; mouse, in vivo, po, 0.5 mg/kg/day): 120; T/C [5, 25]: 164; T/C [5, 26]: 228; Therapeutic index ([7]; mouse, in vivo, iv): 4.7; T/C ([7]; mouse, in vivo, iv, 0.25 mg/kg/day): 109; T/C ([7]; mouse, in vivo, iv, 0.5 mg/kg/day): 136; T/C [7, 28]: 154
CCC1(O)Cc2cc3c(c(O)c2C(OC2CC(N4CCOCC4)C(O)C(C)O2)C1)C(=O)c1c(O)cccc1C3=O (stereo not shown) [3'-deamino-3'-(4-morpholinyl)-R20Y5]	9.6	31.0	6.2	–	–	–	104	146	–	–	–	154	191	123	148	4.3	127	65	4.9	104	antitumor activity against solid tumors (in words) ([1]; Lewis lung carcinoma): antitumor activity comparable to or better than that of Adriamycin against solid tumors; Tumor growth inhibition ([1]; 16 mg/kg/day): 66.6%; Tumor growth inhibition ([1]; 32 mg/kg/day): 91.7%; antitumor activity compared with R20Y5 (in words) ([2]; comparison with R20Y5 of Japanese Laid-Open 76896/1980): antitumor activity of R20Y5 can be remarkably increased by 3'-deamino-3'-4-morpholinylation; T/C [2, 17]: 175; T/C ([2]; mouse, in vivo, ip, 32 mg/kg/day): 219; T/C ([2]; mouse, in vivo, ip, 64 mg/kg/day): 93; T/C [5, 20]: 263; T/C ([5]; mouse, in vivo, po, 64 mg/kg/day): 238; T/C [7, 23]: 182; T/C [7, 24]: > 240
